Laboratory results as given in US20220387457A1 (Qlaris Bio, Inc., priority 2020, published 2022).

Assay: Toxicokinetics after escalating intravenous doses of CKLP1 in beagles
Format: in vivo, beagle dog
Set-up: AUCTlast/Dose: unit not given here
Details: for Vd / clearance / half-life / λZ range / AUC(0-inf) / AUC(0-t) / C0 / Cmax / RAUC / Tlast / Tmax: beagle, dog, in vivo, iv; for AUCTlast/Dose / Cmax/Dose: male dog
Procedure: Two beagles (one male and one female) were intravenously injected with escalating doses of CKPL1 (0.05 mg/kg, 0.5 mg/kg, 1.5 mg/kg, 3 mg/kg, and 5 mg/kg) to assess the toxicity of CKLP1. The injection was done through the cephalic vein and CKLP1 was administered in a phosphate buffered saline solution ((0.096% sodium phosphate dibasic, 0.089% sodium dihydrogen orthophosphate monohydrate, 0.83% sodium chloride) pH 6.5±0.1 in sterile water for injection USP). The dosing schedule is shown below in Table 3.
The following parameters and endpoints were evaluated: mortality, clinical observations, body and organ weights, and food consumption. Bioanalytical samples for toxicokinetic parameters (for both CKLP1 and leveromakalim) were collected after each dose level (days 1, 3, 8, 10, and 14) at predose, 1, 3, 6, 8, and 24 hours postdose. Animals were released from the study after completion of the bioanalytical sample collection schedule.
Toxicokinetics (TK) were determined based on the individual exposures for each animal on each sampled study day (days 1, 3, 8, 10, and 14). […] Predose samples had no quantifiable exposure in any animal on any day, with the exception of the female dog on day 10. The predose concentration for the female dog on day 10 was excluded from the TK analysis in order to allow for estimation of the IV C0.

[1] = IV CKLP1 0.05 mg/kg, study day 1
[2] = IV CKLP1 0.5 mg/kg, study day 3
[3] = IV CKLP1 1.5 mg/kg, study day 8

Q: With CC1(C)Oc2ccc(C#N)cc2[C@@H](N2CCCC2=O)[C@@H]1OP(=O)(O)O [CKLP1] as the compound, how does the Vd (female, 3 mg/kg) read?
A: 0.099 L/kg

Q: What about the clearance (female, 3 mg/kg) of the same compound?
A: 0.388 mL/min/kg

Q: And the half-life (female, 3 mg/kg)?
A: 2.94 h

Q: What about the λZ range (female, 3 mg/kg) of the same compound?
A: 6 to 24 h

Q: What about the AUC(0-inf) (female, 5 mg/kg) of the same compound?
A: 330000 ng·h/mL

Q: What about the AUC(0-t) (female, 5 mg/kg) of the same compound?
A: 311000 ng·h/mL

Q: What about the C0 (female, 5 mg/kg) of the same compound?
A: 32.2 µg/mL

Q: And the Cmax (female, 5 mg/kg)?
A: 29.3 µg/mL

Q: And the RAUC (female, 5 mg/kg)?
A: 148

Q: And the Tlast (female, 5 mg/kg)?
A: 24.0 h

Q: And the Tmax (female, 5 mg/kg)?
A: 1 h

Q: And the Vd (female, 5 mg/kg)?
A: 0.131 L/kg

Q: What about the clearance (female, 5 mg/kg) of the same compound?
A: 0.253 mL/min/kg

Q: What about the half-life (female, 5 mg/kg) of the same compound?
A: 5.98 h

Q: What about the λZ range (female, 5 mg/kg) of the same compound?
A: 3 to 24 h

Q: And the AUCTlast/Dose [1]?
A: 22400

Q: And the Cmax/Dose [1]?
A: 4.9e+06 µg/mL

Q: What about the AUCTlast/Dose [2] of the same compound?
A: 28500

Q: And the Cmax/Dose [2]?
A: 5.2e+06 µg/mL

Q: And the AUCTlast/Dose [3]?
A: 28800

Q: And the Cmax/Dose [3]?
A: 5.13e+06 µg/mL

Q: And the AUCTlast/Dose (IV CKLP1 3 mg/kg, study day 10)?
A: 28400

Q: And the Cmax/Dose (IV CKLP1 3 mg/kg, study day 10)?
A: 4.8e+06 µg/mL

Q: And the AUCTlast/Dose (IV CKLP1 5 mg/kg, study day 14)?
A: 31700

Q: What about the Cmax/Dose (IV CKLP1 5 mg/kg, study day 14) of the same compound?
A: 4.48e+06 µg/mL

Q: What about the AUC(0-inf) (male, 0.05 mg/kg) of the same compound?
A: 1230 ng·h/mL

Q: And the AUC(0-t) (male, 0.05 mg/kg)?
A: 1120 ng·h/mL

Q: What about the C0 (male, 0.05 mg/kg) of the same compound?
A: 0.301 µg/mL

Q: What about the Cmax (male, 0.05 mg/kg) of the same compound?
A: 0.245 µg/mL

Q: And the Tlast (male, 0.05 mg/kg)?
A: 8.00 h

Q: What about the Tmax (male, 0.05 mg/kg) of the same compound?
A: 1 h

Q: What about the Vd (male, 0.05 mg/kg) of the same compound?
A: 0.131 L/kg

Q: And the clearance (male, 0.05 mg/kg)?
A: 0.678 mL/min/kg

Q: And the half-life (male, 0.05 mg/kg)?
A: 2.23 h

Q: And the λZ range (male, 0.05 mg/kg)?
A: 3 to 8 h

Q: And the AUC(0-inf) (male, 0.5 mg/kg)?
A: 14300 ng·h/mL

Q: And the AUC(0-t) (male, 0.5 mg/kg)?
A: 14300 ng·h/mL

Q: And the C0 (male, 0.5 mg/kg)?
A: 3.58 µg/mL

Q: And the Cmax (male, 0.5 mg/kg)?
A: 2.6 µg/mL

Q: What about the RAUC (male, 0.5 mg/kg) of the same compound?
A: 12.8

Q: What about the Tlast (male, 0.5 mg/kg) of the same compound?
A: 24.0 h

Q: And the Tmax (male, 0.5 mg/kg)?
A: 1 h

Q: What about the Vd (male, 0.5 mg/kg) of the same compound?
A: 0.143 L/kg

Q: And the clearance (male, 0.5 mg/kg)?
A: 0.583 mL/min/kg

Q: What about the half-life (male, 0.5 mg/kg) of the same compound?
A: 2.84 h

Q: And the λZ range (male, 0.5 mg/kg)?
A: 3 to 24 h

Q: And the AUC(0-inf) (male, 1.5 mg/kg)?
A: 43300 ng·h/mL

Q: What about the AUC(0-t) (male, 1.5 mg/kg) of the same compound?
A: 43200 ng·h/mL

Q: What about the C0 (male, 1.5 mg/kg) of the same compound?
A: 10.4 µg/mL

Q: And the Cmax (male, 1.5 mg/kg)?
A: 7.69 µg/mL

Q: And the RAUC (male, 1.5 mg/kg)?
A: 38.6

Q: What about the Tlast (male, 1.5 mg/kg) of the same compound?
A: 24.0 h

Q: And the Tmax (male, 1.5 mg/kg)?
A: 1 h

Q: And the Vd (male, 1.5 mg/kg)?
A: 0.146 L/kg

Q: What about the clearance (male, 1.5 mg/kg) of the same compound?
A: 0.578 mL/min/kg

Q: And the half-life (male, 1.5 mg/kg)?
A: 2.91 h

Q: And the λZ range (male, 1.5 mg/kg)?
A: 1 to 24 h

Q: What about the AUC(0-inf) (male, 3 mg/kg) of the same compound?
A: 89000 ng·h/mL

Q: What about the AUC(0-t) (male, 3 mg/kg) of the same compound?
A: 85100 ng·h/mL

Q: And the C0 (male, 3 mg/kg)?
A: 18.5 µg/mL

Q: And the Cmax (male, 3 mg/kg)?
A: 14.4 µg/mL

Q: And the RAUC (male, 3 mg/kg)?
A: 76.0

Q: What about the Tlast (male, 3 mg/kg) of the same compound?
A: 24.0 h

Q: What about the Tmax (male, 3 mg/kg) of the same compound?
A: 1 h

Q: What about the Vd (male, 3 mg/kg) of the same compound?
A: 0.303 L/kg

Q: What about the clearance (male, 3 mg/kg) of the same compound?
A: 0.562 mL/min/kg

Q: And the half-life (male, 3 mg/kg)?
A: 6.22 h

Q: And the λZ range (male, 3 mg/kg)?
A: 6 to 24 h

Q: And the AUC(0-inf) (male, 5 mg/kg)?
A: 160000 ng·h/mL

Q: What about the AUC(0-t) (male, 5 mg/kg) of the same compound?
A: 159000 ng·h/mL

Q: What about the C0 (male, 5 mg/kg) of the same compound?
A: 25.9 µg/mL

Q: What about the Cmax (male, 5 mg/kg) of the same compound?
A: 22.4 µg/mL

Q: What about the RAUC (male, 5 mg/kg) of the same compound?
A: 142

Q: And the Tlast (male, 5 mg/kg)?
A: 24.0 h

Q: And the Tmax (male, 5 mg/kg)?
A: 1 h

Q: And the Vd (male, 5 mg/kg)?
A: 0.156 L/kg

Q: And the clearance (male, 5 mg/kg)?
A: 0.522 mL/min/kg

Q: And the half-life (male, 5 mg/kg)?
A: 3.47 h

Q: What about the λZ range (male, 5 mg/kg) of the same compound?
A: 1 to 24 h
